ChEMBL document CHEMBL1156356, “Aromatase inhibitors from Broussonetia papyrifera” (J Nat Prod, 2001)

target: T1, Aromatase (Homo sapiens, UniProt P11511); experiment: Inhibition of aromatase from human placental microsomes
T1 sequence (P11511 whole entry): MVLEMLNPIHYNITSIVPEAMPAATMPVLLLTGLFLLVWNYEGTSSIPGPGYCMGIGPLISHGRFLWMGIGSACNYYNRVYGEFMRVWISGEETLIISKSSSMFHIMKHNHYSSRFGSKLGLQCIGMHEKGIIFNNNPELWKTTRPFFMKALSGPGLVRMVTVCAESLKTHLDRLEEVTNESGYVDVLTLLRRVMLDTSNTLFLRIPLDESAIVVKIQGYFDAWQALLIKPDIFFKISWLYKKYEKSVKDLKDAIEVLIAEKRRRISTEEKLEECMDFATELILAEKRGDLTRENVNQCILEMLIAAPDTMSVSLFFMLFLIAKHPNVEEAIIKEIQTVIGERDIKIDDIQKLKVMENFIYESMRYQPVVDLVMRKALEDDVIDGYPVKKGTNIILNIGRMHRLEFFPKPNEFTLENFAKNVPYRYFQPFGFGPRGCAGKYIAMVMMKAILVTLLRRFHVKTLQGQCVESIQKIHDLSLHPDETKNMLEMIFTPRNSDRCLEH

SMILES	IC50
Oc1ccc(CCCc2ccc(O)cc2O)cc1	> 164 µM
CC(C)=CCC/C(C)=C/Cc1c(O)cc2oc(-c3ccc(O)c(O)c3)c(O)c(=O)c2c1O	> 91.2 µM
COc1c(-c2ccc(O)c(O)c2)oc2cc(O)c(C/C=C(\C)CCC=C(C)C)c(O)c2c1=O	> 88.4 µM
CC(C)(O)C1Cc2c(ccc3c2O[C@H](c2ccc(O)cc2O)CC3=O)O1 (some centres undefined)	0.1 µM
CC(C)=CCc1cc(C2CC(=O)c3c(O)cc(O)cc3O2)ccc1O (centres undefined)	0.4 µM
Oc1ccc([C@@H]2CCc3ccc(O)cc3O2)cc1	> 165 µM
CC(C)=CCc1cc([C@H]2Oc3c(CC=C(C)C)c(O)cc(O)c3C(=O)[C@@H]2O)ccc1O	> 94.2 µM
O=c1ccc2c(o1)CCCC2	> 266 µM
CC1=C[C@@H]2c3c(O)cc(-c4cc5ccc(O)cc5o4)cc3O[C@]3(c4ccc(O)cc4O)Oc4cc(O)ccc4[C@@H](C1)C23 (some centres undefined) [ALBANOL A]	7.5 µM
COc1ccc(CCCc2ccc(O)cc2)c(O)c1 [BROUSSONIN A]	30 µM
COc1cc(O)ccc1CCCc1ccc(O)cc1 [BROUSSONIN B]	> 155 µM
COc1ccc(CCCc2ccc(OC)c(O)c2)c(O)c1 [BROUSSONIN E]	> 139 µM
COc1ccc(CCCc2ccc(O)c(OC)c2)c(OC)c1 [BROUSSONIN F]	> 132 µM
O=C1c2c(O)cc(O)cc2O[C@H](c2ccc(O)cc2)[C@H]1O [DIHYDROKAEMPFEROL]	> 139 µM
O=C1c2c(O)cc(O)cc2O[C@H](c2ccc(O)cc2O)[C@H]1O [DIHYDROMORIN]	> 131 µM
CC1(C)C[C@H](O)C[C@@]2(C)OC(=O)C=C12 [LOLIOLIDE]	> 204 µM
CC(C)(O)[C@@H]1Cc2cc3ccc(=O)oc3cc2O1 [MARMESIN]	> 162 µM
CC1(C)C=Cc2c(O)cc(-c3cc4ccc(O)cc4o3)cc2O1 [MORACIN D]	> 130 µM
COc1cc(O)cc(-c2cc3ccc(O)cc3o2)c1CC=C(C)C [MORACIN I]	> 123 µM
Oc1cc(O)cc(-c2cc3ccc(O)cc3o2)c1 [MORACIN M]	> 165 µM
CC(C)=CCc1cc2cc(-c3cc(O)cc(O)c3)oc2cc1O [MORACIN N]	31.1 µM

Second part, the molecule after the results:

IC50	SMILES
> 147 µM	O=C(/C=C/c1ccc(O)cc1O)c1ccc(O)cc1O
> 129 µM	CC(C)=CCc1cc([C@@H]2CCc3ccc(O)cc3O2)ccc1O
> 128 µM	CC(C)=CCc1c(O)ccc(CCCc2ccc(O)cc2)c1O
3.4 µM	CC(C)=CCc1c(O)ccc2c1O[C@H](c1ccc(O)cc1O)CC2=O
> 123 µM	COc1cc(O)ccc1CCCc1ccc(O)c(CC=C(C)C)c1
> 123 µM	CC(C)=CCc1cc2c(cc1O)O[C@H](c1ccc(O)cc1)CC2=O [BAVACHIN]
> 118 µM	CC(C)=CCc1cc(C(=O)/C=C/c2ccc(O)c(O)c2)c(O)cc1O [BROUSSOCHALCONE A]
> 123 µM	CC(C)=CCc1cc(C(=O)/C=C/c2ccc(O)cc2)c(O)cc1O [BROUSSOCHALCONE B]
9.7 µM	CC(C)=CCc1cc(-c2oc3c(CC=C(C)C)c(O)cc(O)c3c(=O)c2O)ccc1O [BROUSSOFLAVONOL F]
31.1 µM	CC(C)=CCc1c(O)cc(O)cc1-c1cc2ccc(O)cc2o1 [DEMETHYLMORACIN I]
> 108 µM	CC(C)=CCc1c(O)cc2oc(-c3ccc(O)c(O)c3)c(O)c(=O)c2c1O [GANCAONIN P]
> 123 µM	CC(C)=CCc1c(O)ccc(C(=O)/C=C/c2ccc(O)cc2)c1O [ISOBAVACHALCONE]
0.1 µM	CC(C)=CCc1cc(-c2oc3cc(O)cc(O)c3c(=O)c2O)ccc1O [ISOLICOFLAVONOL]
